Results on 22 compounds are retold here after US20050090529A1, “3,5 Disubstituted indazole compounds with nitrogen-bearing 5-membered heterocycles, pharmaceutical compositions, and methods for mediating or inhibiting cell proliferation” (PFIZER INC, priority 2003, published 2005).

SMILES strings stand for the structures.

In this assay the test system is Cyclin-dependent kinase. The assay is described as follows: Cyclin-dependent kinase inhibition, % inhibition at 10 nM (library Examples 99-270). It counts as biochemical. The settings on record: 10 nM compound. The protocol:
Cyclin-dependent kinase activity was measured by quantifying the enzyme-catalyzed, time-dependent incorporation of radioactive phosphate from [^32P]ATP or [^33P]ATP into a protein substrate. Unless noted otherwise, assays were performed in 96-well plates in a total volume of 50 μL, in the presence of 10 mM HEPES (N-[2-hydroxyethyl]piperazine-N′-[2-ethanesulfonic acid]) (pH 7.4), 10 mM MgCl2, 25 μM adenosine triphosphate (ATP), 1 mg/mL ovalbumin, 5 μg/mL leupeptin, 1 mM dithiothreitol, 10 mM beta-glycerophosphate, 0.1 mM sodium vanadate, 1 mM sodium fluoride, 2.5 mM ethylene glycol-bis(β-aminoethyl ethKer)-N,N,N′N′-tetraacetic acid (EGTA), 2% (v/v) dimethylsulfoxide, and 0.03-0.4 μCi [^32/33P]ATP per reaction. Reactions were initiated with enzyme, incubated at 30° C., and terminated after 20 minutes by the addition of ethylenediaminetetraacetic acid (EDTA) to 250 mM. The phosphorylated substrate was then captured on a nitrocellulose or phosphocellulose membrane using a 96-well filtration manifold, and unincorporated radioactivity was removed by repeated washing with 0.85% phosphoric acid. Radioactivity was quantified by exposing the dried membranes to a phosphorimager.
Results of assays performed on compounds, which include the specific examples described above are provided in Examples 99-274 above, and in Table 1 below. Unless indicated otherwise in a particular entry, the units and assays used are as indicated in the applicable column of the table.
For the compound `CCNCc1cncc(-c2ccc3[nH]nc(-c4ncc(C(=O)N5CCC(C#N)(c6ccccc6)CC5)[nH]4)c3c2)c1C` [Example 113, 1-{[2-(5-{5-[(ethylamino)methyl]-4-methylpyridin-3-yl}-1H-indazol-3-yl)-1H-imidazol-5-yl]carbonyl}-4-phenylpiperidine-4-carbonitrile], the “% Inhib @ 10 nM” value was determined as 61%.
Regarding `CCNCc1cncc(-c2ccc3[nH]nc(-c4ncc(C(=O)N5CCN(c6ccncc6)CC5)[nH]4)c3c2)c1C` [Example 144, ethyl{[4-methyl-5-(3-{5-[(4-pyridin-4-ylpiperazin-1-yl)carbonyl]-1H-imidazol-2-yl}-1H-indazol-5-yl)pyridin-3-yl]methyl}amine], the “% Inhib @ 10 nM” value came out at 30%.
In the case of `CCNCc1cncc(-c2ccc3[nH]nc(-c4ncc(C(=O)N5CCN(CCCN6CCOCC6)CC5)[nH]4)c3c2)c1C` [Example 180] it was 22%; in that of `CCNCc1cncc(-c2ccc3[nH]nc(-c4ncc(C(=O)N(CCC#N)CC5CCCO5)[nH]4)c3c2)c1C` (stereo not shown) [Example 258], 49%; in that of `CCNCc1cncc(-c2ccc3[nH]nc(-c4ncc(C(=O)NC5(CO)CCCC5)[nH]4)c3c2)c1C` [Example 139, 2-(5-{5-[(ethylamino)methyl]-4-methylpyridin-3-yl}-1H-indazol-3-yl)-N-[1-(hydroxymethyl)cyclopentyl]-1H-imidazole-5-carboxamide], 64%.
Next, `CCNCc1cncc(-c2ccc3[nH]nc(-c4ncc(C(=O)N5CCC6CCCCC6C5)[nH]4)c3c2)c1C` (stereo not shown) [Example 149, ethyl[(4-methyl-5-{3-[5-(octahydroisoquinolin-2(1H)-ylcarbonyl)-1H-imidazol-2-yl]-1H-indazol-5-yl}pyridin-3-yl)methyl]amine]: 69%.
With `CCNCc1cncc(-c2ccc3[nH]nc(-c4ncc(C(=O)N5Cc6ccccc6C5)[nH]4)c3c2)c1C` [Example 227, [(5-{3-[5-(1,3-dihydro-2H-isoindol-2-ylcarbonyl)-1H-imidazol-2-yl]-1H-indazol-5-yl}-4-methylpyridin-3-yl)methyl]ethylamine], the “% Inhib @ 10 nM” value was 84%.
As to `CCNCc1cncc(-c2ccc3[nH]nc(-c4ncc(C(=O)N5C[C@H](C(=O)OC)[C@@H](c6cccnc6)C5)[nH]4)c3c2)c1C` [Example 220, methyl(3R,4S)-1-{[2-(5-{5-[(ethylamino)methyl]-4-methylpyridin-3-yl}-1H-indazol-3-yl)-1H-imidazol-5-yl]carbonyl}-4-pyridin-3-ylpyrrolidine-3-carboxylate], the “% Inhib @ 10 nM” value was found to be 46%.
Next, `CCNCc1cncc(-c2ccc3[nH]nc(-c4ncc(C(=O)NCc5ccc(CN(C)C)cc5)[nH]4)c3c2)c1C` [Example 159, N-{4[(dimethylamino)methyl]benzyl}-2-(5-{5-[(ethylamino)methyl]-4-methylpyridin-3-yl}-1H-indazol-3-yl)-1H-imidazole-5-carboxamide]: 28%; `CCNCc1cncc(-c2ccc3[nH]nc(-c4ncc(C(=O)N[C@H](c5ccccc5)[C@@H](O)c5ccccc5)[nH]4)c3c2)c1C` [Example 105, 2-(5-{5-[(ethylamino)methyl]-4-methylpyridin-3-yl}-1H-indazol-3-yl)-N-[(1R,2S)-2-hydroxy-1,2-diphenylethyl]-1H-imidazole-5-carboxamide]: 74%; `CCNCc1cncc(-c2ccc3[nH]nc(-c4ncc(C(=O)NCC56CCCN5CCC6)[nH]4)c3c2)c1C` [Example 219, 2-(5-{5-[(ethylamino)methyl]-4-methylpyridin-3-yl}-1H-indazol-3-yl)-N-(tetrahydro-1H-pyrrolizin-7a(5H)-ylmethyl)-1H-imidazole-5-carboxamide]: 20%.
Consider `CCNCc1cncc(-c2ccc3[nH]nc(-c4ncc(C(=O)NC5CCCCC5)[nH]4)c3c2)c1C` [Example 143, N-cyclohexyl-2-(5-{5-[(ethylamino)methyl]-4-methylpyridin-3-yl}-1H-indazol-3-yl)-1H-imidazole-5-carboxamide], for which the “% Inhib @ 10 nM” value was determined as 78%.
For the compound `CCNCc1cncc(-c2ccc3[nH]nc(-c4ncc(C(=O)N(C)CCN(C)C)[nH]4)c3c2)c1C` [Example 156], the “% Inhib @ 10 nM” value is given as 25%.
`CCNCc1cncc(-c2ccc3[nH]nc(-c4ncc(C(=O)N5CCC(O)(CN6CCOCC6)CC5)[nH]4)c3c2)c1C` [Example 266, 1-{[2-(5-{5-[(ethylamino)methyl]-4-methylpyridin-3-yl}-1H-indazol-3-yl)-1H-imidazol-5-yl]carbonyl}-4-(morpholin-4-ylmethyl)piperidin-4-ol]: the “% Inhib @ 10 nM” value worked out at 18%.
As to `CCNCc1cncc(-c2ccc3[nH]nc(-c4ncc(C(=O)NCc5ccc(OC(F)F)cc5)[nH]4)c3c2)c1C` [Example 248, N-[4-(difluoromethoxy)benzyl]-2-(5-{5-[(ethylamino)methyl]-4-methylpyridin-3-yl}-1H-indazol-3-yl)-1H-imidazole-5-carboxamide], the “% Inhib @ 10 nM” value is 67%.
For `CCNCc1cncc(-c2ccc3[nH]nc(-c4ncc(C(=O)N(CC#N)Cc5ccccc5)[nH]4)c3c2)c1C` [Example 213, N-benzyl-N-(cyanomethyl)-2-(5-{5-[(ethylamino)methyl]-4-methylpyridin-3-yl}-1H-indazol-3-yl)-1H-imidazale-5-carboxamide], the “% Inhib @ 10 nM” value is given as 68%.
For `CCNCc1cncc(-c2ccc3[nH]nc(-c4ncc(C(=O)NC[C@]5(O)CC[C@H](c6ccccc6)CC5)[nH]4)c3c2)c1C` [Example 204, 2-(5-{5-[(ethylamino)methyl]-4-methylpyridin-3-yl}-1H-indazol-3-yl)-N-[(trans-1-hydroxy-4-phenylcyclohexyl)methyl]-1H-imidazole-5-carboxamide], the % Inhib @ 10 nM stood at 77%.
With `CCNCc1cncc(-c2ccc3[nH]nc(-c4ncc(C(=O)NC5Cc6ccccc6C5)[nH]4)c3c2)c1C` [Example 158, N-(2,3-dihydro-1H-inden-2-yl)-2-(5-{5-[(ethylamino)methyl]-4-methylpyridin-3-yl}-1H-indazol-3-yl)-1H-imidazole-5-carboxamide], the “% Inhib @ 10 nM” value was determined as 56%.
In the case of `CCNCc1cncc(-c2ccc3[nH]nc(-c4ncc(C(=O)NC)[nH]4)c3c2)c1C` [Example 151, 2-(5-{5-[(ethylamino)methyl]-4-methylpyridin-3-yl}-1H-indazol-3-yl)-N-methyl-1H-imidazole-5-carboxamide] it was 67%; in that of `CCNCc1cncc(-c2ccc3[nH]nc(-c4ncc(C(=O)NCc5ccc(F)c(C(F)(F)F)c5)[nH]4)c3c2)c1C` [Example 148], 60%.
Regarding `CCNCc1cncc(-c2ccc3[nH]nc(-c4ncc(C(=O)N5CCN(CCC#N)CC5)[nH]4)c3c2)c1C` [Example 214, 3-(4-{[2-(5-{5-[(ethylamino)methyl]-4-methylpyridin-3-yl}-1H-indazol-3-yl)-1H-imidazol-5-yl]carbonyl}piperazin-1-yl)propanenitrile], the “% Inhib @ 10 nM” value is given as 40%.
With `CCNCc1cncc(-c2ccc3[nH]nc(-c4ncc(C(=O)N5CCC(C(=O)c6ccccc6)CC5)[nH]4)c3c2)c1C` [Example 171, (1-{[2-(5-{5[(ethylamino)methyl]-4-methylpyridin-3-yl}-1H-indazol-3-yl)-1H-imidazol-5-yl]carbonyl}piperidin-4-yl)(phenyl)methanone], the “% Inhib @ 10 nM” value came out at 65%.
